The structures appear in SMILES notation.

In experiment [1] the target is Proto-oncogene tyrosine-protein kinase receptor Ret (Homo sapiens) (UniProt P07949). Nature of the experiment: Inhibition of RET (unknown origin) at 10 uM after 120 mins P33 radiolabeled kinase activity assay.
For experiment [2], the target named is SRSF protein kinase 1 (Homo sapiens) (UniProt Q96SB4). Nature of the experiment: Inhibition of SRPK1 (unknown origin) at 10 uM after 120 mins P33 radiolabeled kinase activity assay.
Sequence of SRSF protein kinase 1 (Homo sapiens) (Q96SB4 whole entry): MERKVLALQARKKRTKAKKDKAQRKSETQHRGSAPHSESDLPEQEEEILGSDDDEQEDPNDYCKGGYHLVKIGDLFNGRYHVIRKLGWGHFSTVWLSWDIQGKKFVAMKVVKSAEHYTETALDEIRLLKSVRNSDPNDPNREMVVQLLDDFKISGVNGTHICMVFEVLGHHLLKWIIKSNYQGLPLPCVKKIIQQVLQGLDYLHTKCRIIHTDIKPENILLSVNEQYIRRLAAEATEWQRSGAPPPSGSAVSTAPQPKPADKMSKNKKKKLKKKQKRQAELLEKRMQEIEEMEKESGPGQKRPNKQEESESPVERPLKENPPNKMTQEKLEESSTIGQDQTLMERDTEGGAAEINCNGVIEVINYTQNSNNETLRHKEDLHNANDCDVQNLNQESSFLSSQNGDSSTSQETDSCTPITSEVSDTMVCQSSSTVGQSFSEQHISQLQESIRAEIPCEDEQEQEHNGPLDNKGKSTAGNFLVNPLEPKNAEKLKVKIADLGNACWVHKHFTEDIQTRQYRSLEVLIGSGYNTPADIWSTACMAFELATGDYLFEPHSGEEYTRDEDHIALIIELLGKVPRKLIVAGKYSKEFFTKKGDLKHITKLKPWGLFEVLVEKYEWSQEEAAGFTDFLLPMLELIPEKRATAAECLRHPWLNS
The target in experiment [3] is T1, Dual serine/threonine and tyrosine protein kinase (Homo sapiens) (UniProt Q6XUX3).
T1 sequence (whole entry): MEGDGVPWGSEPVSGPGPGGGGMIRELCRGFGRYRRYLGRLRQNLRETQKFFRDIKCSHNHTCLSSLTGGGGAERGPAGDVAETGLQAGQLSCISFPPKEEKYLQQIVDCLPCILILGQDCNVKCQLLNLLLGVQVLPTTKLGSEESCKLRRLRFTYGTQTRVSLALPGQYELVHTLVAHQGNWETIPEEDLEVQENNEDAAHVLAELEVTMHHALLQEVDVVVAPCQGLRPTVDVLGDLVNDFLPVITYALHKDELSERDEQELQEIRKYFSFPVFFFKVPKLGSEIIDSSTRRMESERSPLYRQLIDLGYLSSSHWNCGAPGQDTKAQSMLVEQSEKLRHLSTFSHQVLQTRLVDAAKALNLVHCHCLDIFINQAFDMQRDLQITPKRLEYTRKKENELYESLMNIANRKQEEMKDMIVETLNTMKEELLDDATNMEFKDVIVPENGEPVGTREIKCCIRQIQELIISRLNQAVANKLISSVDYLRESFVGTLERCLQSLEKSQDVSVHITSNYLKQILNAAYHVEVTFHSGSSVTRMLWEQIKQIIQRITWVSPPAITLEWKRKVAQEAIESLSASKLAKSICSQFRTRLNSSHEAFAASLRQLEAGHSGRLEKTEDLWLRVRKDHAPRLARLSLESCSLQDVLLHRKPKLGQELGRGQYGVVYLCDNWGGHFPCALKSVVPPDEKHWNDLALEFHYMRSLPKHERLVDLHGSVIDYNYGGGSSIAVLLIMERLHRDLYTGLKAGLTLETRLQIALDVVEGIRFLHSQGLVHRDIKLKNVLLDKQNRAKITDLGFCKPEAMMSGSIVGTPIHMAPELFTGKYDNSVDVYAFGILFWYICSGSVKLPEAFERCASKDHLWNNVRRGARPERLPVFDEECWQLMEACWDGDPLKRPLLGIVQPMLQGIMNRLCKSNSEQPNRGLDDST
Nature of the experiment: Inhibition of RIPK5 (unknown origin) at 10 uM after 120 mins P33 radiolabeled kinase activity assay.

Experiment [4] addresses Mitogen-activated protein kinase kinase kinase 12 (Homo sapiens) (UniProt Q12852). Nature of the experiment: Inhibition of DLK (unknown origin) at 10 uM after 120 mins P33 radiolabeled kinase activity assay.
The target of experiment [5] is RAF proto-oncogene serine/threonine-protein kinase (Homo sapiens) (UniProt P04049). Nature of the experiment: Inhibition of RAF1 (unknown origin) at 10 uM after 120 mins P33 radiolabeled kinase activity assay.
Sequence of RAF proto-oncogene serine/threonine-protein kinase (Homo sapiens) (P04049 whole entry): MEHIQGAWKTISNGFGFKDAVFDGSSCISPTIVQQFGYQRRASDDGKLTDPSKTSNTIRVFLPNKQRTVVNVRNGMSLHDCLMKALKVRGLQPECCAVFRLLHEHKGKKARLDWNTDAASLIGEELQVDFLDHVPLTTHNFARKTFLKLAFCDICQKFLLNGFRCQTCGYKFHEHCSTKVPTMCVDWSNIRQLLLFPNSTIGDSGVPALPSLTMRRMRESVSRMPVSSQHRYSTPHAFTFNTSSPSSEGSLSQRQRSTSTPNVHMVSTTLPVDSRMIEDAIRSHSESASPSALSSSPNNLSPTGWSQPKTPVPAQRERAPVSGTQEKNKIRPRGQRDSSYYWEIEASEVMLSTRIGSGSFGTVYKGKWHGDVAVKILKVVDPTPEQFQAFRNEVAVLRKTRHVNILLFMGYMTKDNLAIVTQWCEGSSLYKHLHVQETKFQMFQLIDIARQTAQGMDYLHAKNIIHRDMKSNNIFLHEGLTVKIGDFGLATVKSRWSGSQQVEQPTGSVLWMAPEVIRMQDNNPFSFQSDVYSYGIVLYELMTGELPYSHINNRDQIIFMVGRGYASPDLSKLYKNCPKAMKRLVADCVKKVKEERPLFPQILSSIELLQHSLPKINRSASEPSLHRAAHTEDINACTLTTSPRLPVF
For experiment [6], the target named is Serine/threonine-protein kinase pim-3 (Homo sapiens) (UniProt Q86V86). Nature of the experiment: Inhibition of PIM3 (unknown origin) at 10 uM after 120 mins P33 radiolabeled kinase activity assay.
Experiment [7] deals with Tyrosine-protein kinase BTK (Homo sapiens) (UniProt Q06187). Nature of the experiment: Inhibition of BTK (unknown origin) at 10 uM after 120 mins P33 radiolabeled kinase activity assay.
Experiment [8] has as its target Serine/threonine-protein kinase N1 (Homo sapiens) (UniProt Q16512). Nature of the experiment: Inhibition of PKN1 (unknown origin) at 10 uM after 120 mins P33 radiolabeled kinase activity assay.
Experiment [9] concerns the target T2, Testis-specific serine/threonine-protein kinase 3 (Homo sapiens) (UniProt Q96PN8).
T2 sequence (whole entry): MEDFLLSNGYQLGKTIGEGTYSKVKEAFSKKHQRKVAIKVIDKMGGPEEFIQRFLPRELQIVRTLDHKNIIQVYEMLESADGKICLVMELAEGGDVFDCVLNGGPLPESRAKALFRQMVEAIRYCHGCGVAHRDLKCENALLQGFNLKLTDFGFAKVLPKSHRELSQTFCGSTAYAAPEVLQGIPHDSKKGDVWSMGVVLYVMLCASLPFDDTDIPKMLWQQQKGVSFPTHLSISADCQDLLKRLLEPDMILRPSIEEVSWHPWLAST
Nature of the experiment: Inhibition of TSSK3 (unknown origin) at 10 uM after 120 mins P33 radiolabeled kinase activity assay.

The target of experiment [10] is T3, MAP/microtubule affinity-regulating kinase 4 (Homo sapiens) (UniProt Q96L34).
T3 sequence (whole entry): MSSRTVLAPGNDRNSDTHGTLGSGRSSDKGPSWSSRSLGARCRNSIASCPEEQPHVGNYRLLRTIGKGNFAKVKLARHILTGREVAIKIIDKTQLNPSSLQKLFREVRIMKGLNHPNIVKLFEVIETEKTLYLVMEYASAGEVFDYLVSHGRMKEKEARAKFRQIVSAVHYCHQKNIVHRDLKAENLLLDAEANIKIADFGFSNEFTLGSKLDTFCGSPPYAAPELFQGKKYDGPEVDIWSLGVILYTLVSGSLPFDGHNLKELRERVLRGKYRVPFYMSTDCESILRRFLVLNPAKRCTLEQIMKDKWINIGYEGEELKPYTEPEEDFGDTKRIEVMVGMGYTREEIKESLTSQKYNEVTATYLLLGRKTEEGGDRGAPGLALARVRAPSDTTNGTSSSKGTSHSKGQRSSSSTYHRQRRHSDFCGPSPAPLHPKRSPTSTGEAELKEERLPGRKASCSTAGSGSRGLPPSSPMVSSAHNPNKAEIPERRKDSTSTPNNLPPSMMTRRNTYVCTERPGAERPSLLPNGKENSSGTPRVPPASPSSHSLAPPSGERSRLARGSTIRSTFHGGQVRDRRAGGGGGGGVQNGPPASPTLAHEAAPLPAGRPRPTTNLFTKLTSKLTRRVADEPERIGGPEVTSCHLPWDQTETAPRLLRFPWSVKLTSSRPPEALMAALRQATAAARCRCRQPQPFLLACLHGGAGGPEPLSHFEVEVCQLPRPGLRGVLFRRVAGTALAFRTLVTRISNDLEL
Nature of the experiment: Inhibition of MARK4 (unknown origin) at 10 uM after 120 mins P33 radiolabeled kinase activity assay.

The target in experiment [11] is Calcium/calmodulin-dependent protein kinase type 1B (Homo sapiens) (UniProt Q6P2M8). Nature of the experiment: Inhibition of CAMK1beta (unknown origin) at 10 uM after 120 mins P33 radiolabeled kinase activity assay.
Sequence of Calcium/calmodulin-dependent protein kinase type 1B (Homo sapiens) (Q6P2M8 whole entry, the tested form may be a part): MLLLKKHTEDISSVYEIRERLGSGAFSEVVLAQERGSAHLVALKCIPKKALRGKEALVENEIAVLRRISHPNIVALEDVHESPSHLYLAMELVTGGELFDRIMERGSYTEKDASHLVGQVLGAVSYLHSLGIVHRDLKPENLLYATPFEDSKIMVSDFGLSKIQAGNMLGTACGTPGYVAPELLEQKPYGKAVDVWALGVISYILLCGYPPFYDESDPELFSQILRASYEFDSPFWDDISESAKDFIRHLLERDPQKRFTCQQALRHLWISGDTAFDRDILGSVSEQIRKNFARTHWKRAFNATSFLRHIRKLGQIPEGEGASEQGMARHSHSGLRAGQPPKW
The target of experiment [12] is Epithelial discoidin domain-containing receptor 1 (Homo sapiens) (UniProt Q08345). Nature of the experiment: Inhibition of DDR1 (unknown origin) at 10 uM after 120 mins P33 radiolabeled kinase activity assay.
Sequence of Epithelial discoidin domain-containing receptor 1 (Homo sapiens) (Q08345 whole entry, the tested form may be a part): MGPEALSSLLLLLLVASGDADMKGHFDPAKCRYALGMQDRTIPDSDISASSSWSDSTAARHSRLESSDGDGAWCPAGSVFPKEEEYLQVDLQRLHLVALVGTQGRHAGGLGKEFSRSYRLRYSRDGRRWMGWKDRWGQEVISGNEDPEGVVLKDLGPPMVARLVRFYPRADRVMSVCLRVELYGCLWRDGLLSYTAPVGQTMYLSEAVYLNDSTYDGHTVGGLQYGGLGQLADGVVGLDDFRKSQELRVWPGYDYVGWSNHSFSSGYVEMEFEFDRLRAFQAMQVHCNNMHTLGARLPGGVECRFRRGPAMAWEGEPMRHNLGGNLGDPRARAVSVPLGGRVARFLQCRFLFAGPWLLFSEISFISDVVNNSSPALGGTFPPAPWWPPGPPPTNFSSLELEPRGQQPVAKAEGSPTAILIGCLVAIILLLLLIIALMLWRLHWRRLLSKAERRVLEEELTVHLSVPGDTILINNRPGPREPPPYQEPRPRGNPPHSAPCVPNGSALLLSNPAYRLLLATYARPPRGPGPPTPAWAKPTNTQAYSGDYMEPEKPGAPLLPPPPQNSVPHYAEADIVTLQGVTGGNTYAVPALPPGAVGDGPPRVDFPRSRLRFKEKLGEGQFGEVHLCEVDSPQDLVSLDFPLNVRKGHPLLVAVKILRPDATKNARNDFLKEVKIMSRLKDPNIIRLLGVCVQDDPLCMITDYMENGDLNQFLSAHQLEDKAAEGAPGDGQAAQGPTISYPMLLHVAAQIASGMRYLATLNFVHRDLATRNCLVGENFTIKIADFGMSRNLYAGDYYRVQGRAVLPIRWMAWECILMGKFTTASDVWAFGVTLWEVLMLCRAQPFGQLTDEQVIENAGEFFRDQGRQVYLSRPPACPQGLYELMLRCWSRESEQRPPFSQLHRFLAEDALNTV
The target of experiment [13] is Serine/threonine-protein kinase Chk2 (Homo sapiens) (UniProt O96017). Nature of the experiment: Inhibition of CHK2 (unknown origin) at 10 uM after 120 mins P33 radiolabeled kinase activity assay.
Sequence of Serine/threonine-protein kinase Chk2 (Homo sapiens) (O96017 whole entry): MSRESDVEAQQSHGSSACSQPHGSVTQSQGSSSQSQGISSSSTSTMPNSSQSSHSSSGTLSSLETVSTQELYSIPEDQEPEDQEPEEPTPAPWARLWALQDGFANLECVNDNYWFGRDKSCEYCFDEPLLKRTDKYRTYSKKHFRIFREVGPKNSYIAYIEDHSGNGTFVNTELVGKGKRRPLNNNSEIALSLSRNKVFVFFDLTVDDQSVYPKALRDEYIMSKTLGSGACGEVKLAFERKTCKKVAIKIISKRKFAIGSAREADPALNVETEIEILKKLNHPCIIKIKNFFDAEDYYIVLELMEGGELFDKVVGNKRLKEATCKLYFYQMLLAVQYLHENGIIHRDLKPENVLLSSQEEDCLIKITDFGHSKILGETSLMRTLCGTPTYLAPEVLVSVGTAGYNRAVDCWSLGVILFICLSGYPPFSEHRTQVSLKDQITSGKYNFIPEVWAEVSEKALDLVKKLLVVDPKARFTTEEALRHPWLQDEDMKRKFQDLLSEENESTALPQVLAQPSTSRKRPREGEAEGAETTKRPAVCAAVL

Sequence of Proto-oncogene tyrosine-protein kinase receptor Ret (Homo sapiens) (P07949 whole entry): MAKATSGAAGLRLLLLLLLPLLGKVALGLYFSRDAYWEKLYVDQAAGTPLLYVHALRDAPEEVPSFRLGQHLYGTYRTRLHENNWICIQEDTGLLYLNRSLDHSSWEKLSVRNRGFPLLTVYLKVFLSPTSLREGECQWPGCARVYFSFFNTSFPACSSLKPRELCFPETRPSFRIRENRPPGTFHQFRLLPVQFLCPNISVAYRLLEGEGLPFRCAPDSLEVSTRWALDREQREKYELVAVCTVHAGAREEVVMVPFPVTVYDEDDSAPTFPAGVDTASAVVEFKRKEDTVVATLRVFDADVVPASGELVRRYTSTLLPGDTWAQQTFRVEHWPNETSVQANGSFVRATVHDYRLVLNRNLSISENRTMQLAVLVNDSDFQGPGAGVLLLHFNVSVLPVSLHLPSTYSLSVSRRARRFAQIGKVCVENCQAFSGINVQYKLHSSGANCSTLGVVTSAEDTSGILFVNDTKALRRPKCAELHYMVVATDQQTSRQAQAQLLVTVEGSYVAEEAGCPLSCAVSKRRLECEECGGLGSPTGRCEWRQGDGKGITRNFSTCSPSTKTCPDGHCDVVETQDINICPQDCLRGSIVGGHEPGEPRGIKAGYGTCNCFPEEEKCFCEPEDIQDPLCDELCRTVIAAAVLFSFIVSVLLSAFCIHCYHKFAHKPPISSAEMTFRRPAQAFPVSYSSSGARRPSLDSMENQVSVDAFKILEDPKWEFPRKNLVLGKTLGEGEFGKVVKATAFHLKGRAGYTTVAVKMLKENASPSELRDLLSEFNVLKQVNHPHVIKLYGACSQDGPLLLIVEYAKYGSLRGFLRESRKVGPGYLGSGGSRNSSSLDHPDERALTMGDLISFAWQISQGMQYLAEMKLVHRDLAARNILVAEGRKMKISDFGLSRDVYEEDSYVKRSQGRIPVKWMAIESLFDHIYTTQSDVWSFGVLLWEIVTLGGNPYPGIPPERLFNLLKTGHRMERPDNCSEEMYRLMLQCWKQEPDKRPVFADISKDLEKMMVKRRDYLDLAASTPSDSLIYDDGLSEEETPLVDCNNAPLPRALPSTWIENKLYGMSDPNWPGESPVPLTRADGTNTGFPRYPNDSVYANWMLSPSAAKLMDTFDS
Sequence of Mitogen-activated protein kinase kinase kinase 12 (Homo sapiens) (Q12852 whole entry, looked up): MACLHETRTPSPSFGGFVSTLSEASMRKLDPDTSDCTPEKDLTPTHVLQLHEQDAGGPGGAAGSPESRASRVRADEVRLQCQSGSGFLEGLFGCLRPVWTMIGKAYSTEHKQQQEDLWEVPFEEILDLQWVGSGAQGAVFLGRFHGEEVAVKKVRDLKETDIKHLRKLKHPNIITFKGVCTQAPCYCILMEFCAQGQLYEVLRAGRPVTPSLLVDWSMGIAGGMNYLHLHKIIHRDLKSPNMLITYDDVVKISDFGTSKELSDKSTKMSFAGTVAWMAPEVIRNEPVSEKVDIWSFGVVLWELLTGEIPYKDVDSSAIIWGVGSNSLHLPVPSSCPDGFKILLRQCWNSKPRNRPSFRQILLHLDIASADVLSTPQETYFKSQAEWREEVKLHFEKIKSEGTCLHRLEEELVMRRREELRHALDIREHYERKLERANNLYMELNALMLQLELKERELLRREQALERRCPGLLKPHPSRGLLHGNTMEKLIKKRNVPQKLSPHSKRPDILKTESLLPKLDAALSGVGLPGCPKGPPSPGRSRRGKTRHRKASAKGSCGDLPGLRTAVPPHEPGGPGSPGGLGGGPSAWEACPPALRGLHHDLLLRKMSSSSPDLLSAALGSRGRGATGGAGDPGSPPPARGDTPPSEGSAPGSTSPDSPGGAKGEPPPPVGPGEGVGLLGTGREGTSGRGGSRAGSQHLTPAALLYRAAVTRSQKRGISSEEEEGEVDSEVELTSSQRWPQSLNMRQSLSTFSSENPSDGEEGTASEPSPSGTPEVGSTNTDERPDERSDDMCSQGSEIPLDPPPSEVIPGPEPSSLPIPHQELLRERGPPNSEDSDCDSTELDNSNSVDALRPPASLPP

Consider `CS(=O)(=O)c1cccc(Nc2nccc(-c3sc(N4CCOCC4)nc3-c3cccc(NS(=O)(=O)c4c(F)cccc4F)c3)n2)c1`, for which the inhibition (as a rule, the drop in the measured response relative to a control, in per cent) in experiment [1] is 98%; in experiment [2] it was 18.5%; in experiment [3], 25%; in experiment [4], 53%; in experiment [5] it was 100%; in [6], 17.3%. The inhibition in experiment [7] is 96%; in experiment [8] it was 5.55%; in experiment [9] it was 10.5%; in experiment [10] it was 39.1%; in experiment [11], 46.8%; in experiment [12] it was 98.6%. The inhibition in [13] came out at 51.7%.
Turning to `CC(C)(C)c1cc(NC(=O)Nc2ccc(Oc3ccncc3)cc2)no1`, the inhibition in experiment [1] was 99.2%; in experiment [2], 59.1%; in experiment [3], -0.31%; in experiment [4], 8.04%; in experiment [5], 98.8%; in experiment [6], 69.2%. For the same compound, the inhibition in [7] worked out at 20.3%; in experiment [8], 25.1%; in experiment [9], 11.2%; in experiment [10], 13.8%; in experiment [11] it was 9.84%; in [12], 98.1%. The inhibition in experiment [13] turned out to be 11.1%.
In the case of `COCCNC(=O)c1ccc2c(c1)nc(-c1cnc(-c3ccc(Cl)cc3)[nH]1)n2CCOC`, the inhibition in experiment [1] is 36%; in [2], 5.66%; in experiment [3], -4.89%; in [4], 5.39%; in experiment [5], 41.5%; in experiment [6], 3.38%. Moreover, the inhibition in [7] stood at 19.4%; in [8] it was 10.6%; in experiment [9] it was 15%; in experiment [10], 12.5%; in [11], 2.47%; in experiment [12] it was 66%. The inhibition in experiment [13] was -5.19%.

These data come from ChEMBL document CHEMBL3627608, “Crystal structures of human RIP2 kinase catalytic domain complexed with ATP-competitive inhibitors: Foundations for understanding inhibitor selectivity” (Bioorg Med Chem, 2015).
